Entries after “also recorded” stand apart in the source; their conditions may differ. Read-outs that look alike come from different tables or passages of the source.
What was measured:
[1] = tested on: SHH signaling activity in SHH-organoids; assay: Drug treatment of SHH-organoids, positional domains analysed at day 20; format: cell-based, human; settings: day 20 SHH-organoids
Procedure: Day 20 organoids were fixed in 4% PFA overnight at 4° C. and washed three times with PBS the next day. […] Sections were blocked for 30 minutes in 10% FBS, 1% BSA, 0.3% triton in PBS, and incubated as floating section in primary antibody overnight. The next day, sections were washed with PBS and incubated as floating section in secondary antibody for 3 hours at room temperature. Day 6 organoids were fixed in 4% PFA for 2 hours at 4° C. and washed three times with PBS. After fixation, tissue was cryoprotected in 30% sucrose/PBS and sectioned at […] and mounted directly onto slides prior to immunofluorescence assays.
Organoid topography was quantified by first dividing each image into a grid of […] squares (day 20 analysis) or […] squares (day 6 analysis) that form a Cartesian coordinate grid. Each square is a discrete region of interest (ROI) that is associated with an X and Y coordinate. The origin of the grid was calculated for each image as the “center of mass” of the iSHH-organizer cells: CMx=S mixi/M and CMy=S miyi/M, where m=grey value intensity of iSHH cells for individual ROIs, x or y=coordinate, and M=total intensity for all ROIs, and the sum includes all x or y coordinates in the image. Next, ROI's that were positive for expression of a given protein (e.g. PAX6) were defined by thresholding staining intensity and determining ROIs with positive immunoreactivity. The linear distance from the origin to each ROI (sqrt((ROIx-CM^x)^2+(ROIy-CMy)^2)) was calculated. The present study analyzed every sixth section for each regional marker per organoid (typically 2-5 sections/organoid, depending on organoid size), thus sampling the organoids in 150 μm intervals using uniform random sampling.

[2] = tested on: SHH-organoids
[3] = tested on: SHH signaling in SHH organizer-containing organoids; assay: Example 6.2: SHH organizer-containing organoids treated with cholesterol inhibitors (FIGS. 15-16); format: cell-based, human; settings: for SHH signaling (PAX6+ extent of organoid): FIG. 15; for long-range and short-range SHH signaling: FIG. 16
Procedure: To evaluate the effect of statins on fetal development, in certain embodiments SHH organizer-containing organoids are treated with statins.
FIG. 16 summarizes the effects of cholesterol inhibition on SHH organizer-containing organoids.

[4] = tested on: SHH signaling activity in SHH-organoids; assay: Drug treatment of SHH-organoids, NKX2.2 induction at day 6; format: cell-based, human; settings: day 6 organoids
Procedure: Day 20 organoids were fixed in 4% PFA overnight at 4° C. and washed three times with PBS the next day. After fixation, tissue was cryoprotected in 30% sucrose/PBS and sectioned at […] on a cryostat (Leica 3050 S). Sections were blocked for 30 minutes in 10% FBS, 1% BSA, 0.3% triton in PBS, and incubated as floating section in primary antibody overnight. The next day, sections were washed with PBS and incubated as floating section in secondary antibody for 3 hours at room temperature. Day 6 organoids were fixed in 4% PFA for 2 hours at 4° C. and washed three times with PBS. After fixation, tissue was cryoprotected in 30% sucrose/PBS and sectioned at […] and mounted directly onto slides prior to immunofluorescence assays.
Organoid topography was quantified by first dividing each image into a grid of […] squares (day 20 analysis) or […] squares (day 6 analysis) that form a Cartesian coordinate grid. […] The origin of the grid was calculated for each image as the “center of mass” of the iSHH-organizer cells: CMx=S mixi/M and CMy=S miyi/M, where m=grey value intensity of iSHH cells for individual ROIs, x or y=coordinate, and M=total intensity for all ROIs, and the sum includes all x or y coordinates in the image. […] The linear distance from the origin to each ROI (sqrt((ROIx-CM^x)^2+(ROIy-CMy)^2)) was calculated. […]

[5] = tested on: SHH-organoids; assay: Drug treatment of SHH-organoids, organoid and organizer size at day 20
[6] = tested on: SW480 cells; settings: cited from earlier work
[7] = doxycycline 400 ng/ml, lovastatin 5 μM, AY9944 1.25 μM
[8] = lovastatin 5 μM, AY9944 1.25 μM, cyclopamine 1 μM

Clc1ccccc1CNCC1CCC(CNCc2ccccc2Cl)CC1 (centres unmarked) [AY9944]
SHH signaling activity (efficacy and range) ([1]; doxycycline 400 ng/ml, drug day 0-10, lovastatin 5 μM, AY9944 1.25 μM, cyclopamine 1 μM): reduced the efficacy and range of SHH signaling activity; also recorded: strong reduction the range of SHH-signaling activity | NKX2.2 induction [1, 7]: largely blocked; also recorded: fail to induce NKX2.2 | NKX2.1 expression in or near the organizer [1, 8]: retained diencephalic NKX2.1 expression; also recorded: only retain NKX2.1 expression in the immediate vicinity of the organizer; also recorded: retain NKX2.1 and OTX2 expression within the organizer | overall organoid size / growth [2]: impaired growth | size of the organizer [2]: did not reduce the size of the organizer itself | SHH signaling (PAX6+ extent of organoid) [3]: largely blocked SHH signaling | long-range and short-range SHH signaling [3]: block long-range SHH signaling, but not short range signaling | NKX2.2 induction ([4]; all concentrations tested): strongly inhibited NKX2.2 induction at all concentrations tested; also recorded: strongly inhibits induction of NKX2.2

CC[C@H](C)C(=O)O[C@H]1C[C@@H](C)C=C2C=C[C@H](C)[C@H](CC[C@@H]3C[C@@H](O)CC(=O)O3)[C@H]21 [Lovastatin]
GSH2 expression domain ([1]; doxycycline 400 ng/ml, lovastatin 5 μM): concomitant increase in GSH2 expression; also recorded: increase in the relative area of the GSH2 expression domain | NKX2.2 induction [1, 7]: partial block in NKX2.2 induction; also recorded: moderate reduction in NKX2.2 induction | NKX2.1 expression in or near the organizer [1, 8]: retained diencephalic NKX2.1 expression; also recorded: retain NKX2.1 and OTX2 expression within the organizer | size of the organizer [5]: did not reduce the size of the organizer itself | overall organoid size / growth ([5]; drug day 0-10): impaired growth | distance at which NKX2.2 is induced from the organizer ([4]; lovastatin 2, 5, 20 μM): reduced the distance at which NKX2.2 is induced from the organizer in a dose-dependent manner; also recorded: dose-dependent reduction

Oc1nc(-c2ccc(C(F)(F)F)cc2)nc2c1CSCC2 [XAV939]
degradation of β-catenin [6]: promotes the degradation of β-catenin | protein levels of the axin-GSK3β complex [6]: increases the protein levels of the axin-GSK3β complex

CC1=C2C[C@H]3[C@@H](CC=C4C[C@@H](O)CC[C@@]43C)[C@@H]2CC[C@]12O[C@@H]1C[C@H](C)CN[C@H]1[C@H]2C [cyclopamine]
PAX6 expression ([1]; doxycycline 400 ng/ml, cyclopamine 1 μM): nearly uniform for PAX6 expression; also recorded: largely express PAX6 | NKX2.1 expression in or near the organizer [1, 8]: not | SHH signaling (PAX6+ extent of organoid) [3]: no SHH signaling | long-range and short-range SHH signaling [3]: block all SHH signaling
